Reference: paper PMC5358917, “Mechanism of H2S Oxidation by the Dissimilatory Perchlorate-Reducing Microorganism Azospira suillum PS” (mBio, 2017)

Columns and labels:
[1] = target: T1, PcrAB (perchlorate reductase) (Azospira oryzae, UniProt G8QM55); assay: steady-state turnover, Cline assay of sulfide; assay type: biochemical; conditions: H2S as electron donor; 0.2 uM PcrAB; anaerobic
T1 construct: gene Dsui_0149; native PcrAB complex purified anoxically from wild-type PS cells, three-column protocol; periplasmic enzyme; with Perchlorate reductase subunit beta
T1 sequence (G8QM55 29-927): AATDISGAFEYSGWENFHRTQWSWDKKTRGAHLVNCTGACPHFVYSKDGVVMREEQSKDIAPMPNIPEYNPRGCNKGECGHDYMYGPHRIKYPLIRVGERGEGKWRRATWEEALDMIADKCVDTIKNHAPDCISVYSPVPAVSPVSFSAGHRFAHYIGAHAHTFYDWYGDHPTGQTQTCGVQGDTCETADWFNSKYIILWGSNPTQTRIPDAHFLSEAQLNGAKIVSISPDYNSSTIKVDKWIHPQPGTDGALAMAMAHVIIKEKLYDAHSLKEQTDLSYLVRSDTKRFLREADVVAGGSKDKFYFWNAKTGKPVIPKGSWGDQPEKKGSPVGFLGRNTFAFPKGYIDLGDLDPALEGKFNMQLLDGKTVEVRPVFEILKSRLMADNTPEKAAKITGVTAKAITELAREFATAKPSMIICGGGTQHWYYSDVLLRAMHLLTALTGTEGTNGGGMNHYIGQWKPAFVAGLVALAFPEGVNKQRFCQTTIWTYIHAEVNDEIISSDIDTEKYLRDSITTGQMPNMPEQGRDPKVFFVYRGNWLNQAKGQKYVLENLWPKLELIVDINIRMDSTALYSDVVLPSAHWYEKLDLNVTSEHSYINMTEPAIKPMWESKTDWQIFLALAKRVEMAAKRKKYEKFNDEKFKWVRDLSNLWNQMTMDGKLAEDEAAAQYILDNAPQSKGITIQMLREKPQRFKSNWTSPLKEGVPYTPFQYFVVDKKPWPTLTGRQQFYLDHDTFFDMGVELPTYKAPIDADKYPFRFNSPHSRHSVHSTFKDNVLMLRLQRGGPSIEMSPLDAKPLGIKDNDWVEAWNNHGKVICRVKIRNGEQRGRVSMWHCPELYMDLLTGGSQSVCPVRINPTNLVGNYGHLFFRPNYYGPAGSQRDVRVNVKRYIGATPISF
T1 sequence (G8QM54 1-333 partner): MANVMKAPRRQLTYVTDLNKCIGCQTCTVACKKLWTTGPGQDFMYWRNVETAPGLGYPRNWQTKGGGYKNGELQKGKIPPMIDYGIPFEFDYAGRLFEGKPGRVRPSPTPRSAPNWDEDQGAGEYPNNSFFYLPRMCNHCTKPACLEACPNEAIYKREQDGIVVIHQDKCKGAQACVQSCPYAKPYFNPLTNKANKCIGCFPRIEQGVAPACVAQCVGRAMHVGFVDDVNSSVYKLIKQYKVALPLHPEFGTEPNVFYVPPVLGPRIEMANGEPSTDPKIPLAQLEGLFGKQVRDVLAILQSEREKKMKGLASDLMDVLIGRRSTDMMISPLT

[2] = target: T1, PcrAB (perchlorate reductase); assay: steady-state turnover, ion chromatography of perchlorate and Cline assay of sulfide; assay type: biochemical; conditions: H2S as electron donor; 0.2 uM PcrAB; anaerobic

SMILES | steady-state turnover, Cline assay of sulfide [1] | steady-state turnover, ion chromatography of perchlorate and Cline assay of sulf [2]
O=[N+]([O-])O [nitrate] | purified PcrAB also mediated H2S oxidation coupled to nitrate reduction | 
[O-][Cl+3]([O-])([O-])O [perchlorate] |  | Our results indicated that PcrAB independently mediated PSOX
